Results from patent publication US8772319B2 (priority 2004, dated 2014).
Read-outs that look alike come from different tables or passages of the source.

What was measured:
[1] = target: T1, human dopamine transporter (hDAT) (Homo sapiens, UniProt Q01959); assay: biochemical; format: binding
[2] = target: T2, human serotonin transporter (hSERT) (Homo sapiens, UniProt P31645); assay: biochemical; details: [125I]RTI-55, read-out: SERT binding affinity Ki
[3] = target: T3, human norepinephrine transporter (hNET) (Homo sapiens, UniProt P23975); assay: biochemical; details: read-out: NET binding affinity Ki
[4] = target: T1, human dopamine transporter (hDAT); assay: cell-based
[5] = target: T2, human serotonin transporter (hSERT); assay: cell-based
[6] = target: T3, human norepinephrine transporter (hNET); assay: cell-based; details: read-out: Reuptake Inhibition [3H]NE IC50
[7] = Reuptake Inhibition [3H]DA IC50, Table 3-1
[8] = Table 4, [125I]RTI-55, read-out: DAT binding affinity Ki
[9] = Table 4-1, read-out: Reuptake Inhibition [3H]DA IC50
[10] = Table 4-1, read-out: Reuptake Inhibition [3H]5-HT IC50

T1 sequence (Q01959 whole entry): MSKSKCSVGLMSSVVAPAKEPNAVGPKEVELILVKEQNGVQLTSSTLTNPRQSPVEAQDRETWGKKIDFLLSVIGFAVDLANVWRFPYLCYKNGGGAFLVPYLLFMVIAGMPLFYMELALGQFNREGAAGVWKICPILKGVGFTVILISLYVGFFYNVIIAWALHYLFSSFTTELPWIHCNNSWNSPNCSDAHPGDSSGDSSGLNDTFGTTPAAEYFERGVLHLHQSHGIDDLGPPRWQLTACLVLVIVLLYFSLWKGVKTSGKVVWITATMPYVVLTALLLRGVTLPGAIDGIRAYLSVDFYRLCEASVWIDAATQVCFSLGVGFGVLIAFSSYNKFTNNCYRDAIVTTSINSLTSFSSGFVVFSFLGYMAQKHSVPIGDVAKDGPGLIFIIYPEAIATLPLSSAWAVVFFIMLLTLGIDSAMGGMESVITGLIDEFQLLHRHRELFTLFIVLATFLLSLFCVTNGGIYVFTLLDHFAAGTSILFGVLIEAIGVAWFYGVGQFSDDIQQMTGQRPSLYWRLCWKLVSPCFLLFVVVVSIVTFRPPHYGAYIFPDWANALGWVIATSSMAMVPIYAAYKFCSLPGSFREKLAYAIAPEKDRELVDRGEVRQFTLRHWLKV
T3 sequence (P23975 whole entry): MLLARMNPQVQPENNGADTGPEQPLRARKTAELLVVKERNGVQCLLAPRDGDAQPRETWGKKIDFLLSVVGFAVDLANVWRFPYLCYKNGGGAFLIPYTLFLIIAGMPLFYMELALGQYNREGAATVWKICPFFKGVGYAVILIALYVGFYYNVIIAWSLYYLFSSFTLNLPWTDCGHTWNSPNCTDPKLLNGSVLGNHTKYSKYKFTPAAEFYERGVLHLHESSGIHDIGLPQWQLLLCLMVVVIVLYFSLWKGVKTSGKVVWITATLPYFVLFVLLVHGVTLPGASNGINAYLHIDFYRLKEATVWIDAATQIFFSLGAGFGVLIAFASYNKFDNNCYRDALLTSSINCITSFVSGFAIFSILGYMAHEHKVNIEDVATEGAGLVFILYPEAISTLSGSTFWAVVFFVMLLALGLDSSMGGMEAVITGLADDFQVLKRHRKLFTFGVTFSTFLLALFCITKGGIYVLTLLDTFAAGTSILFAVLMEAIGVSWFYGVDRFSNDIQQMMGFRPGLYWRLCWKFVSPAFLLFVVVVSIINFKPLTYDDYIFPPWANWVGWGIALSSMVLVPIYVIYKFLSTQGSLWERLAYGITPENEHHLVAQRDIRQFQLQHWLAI
T2 sequence (P31645 whole entry): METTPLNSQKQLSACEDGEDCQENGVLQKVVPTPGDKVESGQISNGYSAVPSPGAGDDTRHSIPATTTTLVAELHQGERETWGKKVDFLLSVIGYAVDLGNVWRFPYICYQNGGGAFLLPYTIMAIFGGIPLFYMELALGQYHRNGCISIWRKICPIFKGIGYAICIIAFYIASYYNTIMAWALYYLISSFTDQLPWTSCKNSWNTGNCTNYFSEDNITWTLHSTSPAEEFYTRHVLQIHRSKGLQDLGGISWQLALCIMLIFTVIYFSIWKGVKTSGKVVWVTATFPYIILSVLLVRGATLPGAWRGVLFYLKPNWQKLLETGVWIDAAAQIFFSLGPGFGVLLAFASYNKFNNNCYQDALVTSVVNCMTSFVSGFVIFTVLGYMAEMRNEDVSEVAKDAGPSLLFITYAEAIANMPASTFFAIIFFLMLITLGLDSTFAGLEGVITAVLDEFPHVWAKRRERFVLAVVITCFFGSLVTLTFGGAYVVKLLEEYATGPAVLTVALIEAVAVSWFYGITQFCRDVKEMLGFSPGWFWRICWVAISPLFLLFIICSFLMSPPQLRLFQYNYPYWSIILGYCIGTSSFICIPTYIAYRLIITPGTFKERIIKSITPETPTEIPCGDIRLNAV

With `O=C(Nc1ccc(F)cc1)NC1CCN(CCCCOC(c2ccc(F)cc2)c2ccc(F)cc2)CC1` [Compound 17] the Ki [1] was 0.032 ± 0.0014 µM, the “Binding Ratios NET/DAT” value ([1]; Table 3) was 13.4 and the “Binding Ratios SERT/DAT” value ([1]; Table 3) was 8.7. It also gave a Ki ([2]; Table 3) of 0.279 ± 0.057 µM, a Ki ([3]; Table 3, [125I]RTI-55) of 0.43 ± 0.1 µM and an IC50 [4, 7] of 7 ± 1.79 µM. For the same compound, the “Discrimination Ratios [3H]DA reuptake/DAT binding” value ([4]; Table 3-1) was 219, the IC50 ([5]; Reuptake Inhibition [3H]5-HT IC50, Table 3-1) was 7.14 µM and the IC50 ([6]; Table 3-1) was 2.53 µM.

With `O=C(NCc1ccc(F)cc1)NC1CCN(CCCCOC(c2ccc(F)cc2)c2ccc(F)cc2)CC1` [Compound 18] the Ki [1] was 0.0017 µM, the “Binding Ratios NET/DAT” value ([1]; Table 3) was 25.3 and the “Binding Ratios SERT/DAT” value ([1]; Table 3) was 121. The Ki ([2]; Table 3) was 0.206 ± 0.037 µM, the Ki ([3]; Table 3, [125I]RTI-55) was 0.043 µM and the IC50 [4, 7] was 1.05 ± 0.291 µM. The “Discrimination Ratios [3H]DA reuptake/DAT binding” value ([4]; Table 3-1) was 618, the IC50 ([5]; Reuptake Inhibition [3H]5-HT IC50, Table 3-1, bound given in μM) was over 10 µM and the IC50 ([6]; Table 3-1) was 1.67 ± 0.688 µM.

`NCC1(c2ccccc2)CCN(CCCCOC(c2ccc(F)cc2)c2ccc(F)cc2)CC1` [Compound 21] was tested, and the “Binding Ratios SERT/DAT” value ([1]; Table 4) was 2.5, the Ki [1, 8] was 0.14 ± 0.053 µM and the Ki ([2]; Table 4) was 0.347 ± 0.152 µM. For the same compound, the “Discrimination Ratios [3H]DA reuptake/DAT binding” value ([4]; Table 4-1) was 1.1, the IC50 [4, 9] was 0.155 µM and the IC50 [5, 10] was 0.337 ± 0.128 µM.

In the case of `O=C(NCC1(c2ccccc2)CCN(CCCCOC(c2ccc(F)cc2)c2ccc(F)cc2)CC1)Nc1ccc(F)cc1` [Compound 22], the Ki [1] is reported as 0.083 µM, the “Binding Ratios SERT/DAT” value ([1]; Table 4) is reported as 2.8 and the Ki ([2]; Table 4) is reported as 0.234 µM. The “Discrimination Ratios [3H]DA reuptake/DAT binding” value ([4]; Table 4-1) was 120.5, the IC50 ([4]; Table 4-1, bound given in μM, read-out: Reuptake Inhibition [3H]DA IC50) was over 10 µM and the IC50 [5, 10] was 0.367 ± 0.062 µM.

`CC(=O)NCC1(c2ccccc2)CCN(CCCCOC(c2ccc(F)cc2)c2ccc(F)cc2)CC1` [Compound 23] was tested, and the “Binding Ratios SERT/DAT” value ([1]; Table 4) was 1.5, the Ki [1, 8] was 0.172 ± 0.014 µM and the Ki ([2]; Table 4) was 0.258 ± 0.076 µM. For the same compound, the “Discrimination Ratios [3H]DA reuptake/DAT binding” value ([4]; Table 4-1) was 0.8, the IC50 [4, 9] was 0.129 ± 0.032 µM and the IC50 [5, 10] was 0.359 ± 0.078 µM.

For `O=C(CCN1C(=O)C=CC1=O)NCC1(c2ccccc2)CCN(CCCCOC(c2ccc(F)cc2)c2ccc(F)cc2)CC1` [Compound 25], the “Binding Ratios SERT/DAT” value ([1]; Table 4) was 7.7, the Ki [1, 8] was 0.827 ± 0.197 µM and the Ki ([2]; Table 4) was 6.4 ± 2.68 µM. The “Discrimination Ratios [3H]DA reuptake/DAT binding” value ([4]; Table 4-1) was 1.2, the IC50 [4, 9] was 0.988 ± 0.305 µM and the IC50 [5, 10] was 3.12 ± 1.47 µM.

`O=C(CCl)NCC1(c2ccccc2)CCN(CCCCOC(c2ccc(F)cc2)c2ccc(F)cc2)CC1` [Compound 26] was tested, and the “Binding Ratios SERT/DAT” value ([1]; Table 4) was 1.8, the Ki [1, 8] was 0.316 ± 0.077 µM and the Ki ([2]; Table 4) was 0.58 ± 0.177 µM. For the same compound, the “Discrimination Ratios [3H]DA reuptake/DAT binding” value ([4]; Table 4-1) was 1.5, the IC50 [4, 9] was 0.486 ± 0.25 µM and the IC50 [5, 10] was 0.27 µM.

For `O=C1CN(CCCCOC(c2ccc(F)cc2)c2ccc(F)cc2)CCN1` [Compound 27, 2-Oxo-4-[4-[bis(4-fluorophenyl)methoxy]butyl]piperazine], the “Binding Ratios NET/DAT” value ([1]; Table 5) was over 2.4, the “Binding Ratios SERT/DAT” value ([1]; Table 5) was 0.4 and the Ki ([1]; Table 5, [125I]RTI-55, oxalate salts, read-out: DAT binding affinity Ki) was 4.1 ± 0.79 µM. For the same compound, the Ki ([2]; Table 5, oxalate salts) was 1.8 ± 0.45 µM, the Ki ([3]; Table 5, bound given in μM) was over 10 µM and the “Discrimination Ratios (DR) [3H]DA reuptake/DAT binding” value ([4]; Table 6) was 0.6. It also gave an IC50 ([4]; Table 6, read-out: Reuptake Inhibition [3H]DA IC50) of 2.29 ± 0.2 µM, an IC50 ([5]; Table 6, read-out: Reuptake Inhibition [3H]5-HT IC50) of 5.34 ± 0.95 µM and an IC50 ([6]; Table 6, bound given in μM) of over 10 µM.

With `Fc1ccc(C(OCCCCN2CCN(c3ccc(F)cc3)CC2)c2ccc(F)cc2)cc1` [Compound 31, 1-(4-Fluorophenyl)-4-[4-[bis(4-fluorophenyl)methoxy]butyl]piperazine] the “Binding Ratios NET/DAT” value ([1]; Table 5) was 7.8, the “Binding Ratios SERT/DAT” value ([1]; Table 5) was 1.3 and the “Discrimination Ratios (DR) [3H]DA reuptake/DAT binding” value ([4]; Table 6) was 23.

For `Fc1ccc(C(OCCCCN2CCN(c3cccc(Cl)c3)CC2)c2ccc(F)cc2)cc1` [Compound 33, 1-(3-Chlorophenyl)-4-[4-[bis(4-fluorophenyl)methoxy]butyl]piperazine], the “Binding Ratios NET/DAT” value ([1]; Table 5) was 1.7, the “Binding Ratios SERT/DAT” value ([1]; Table 5) was 0.8 and the “Discrimination Ratios (DR) [3H]DA reuptake/DAT binding” value ([4]; Table 6) was 9.5.
